{"source": "patent US20250197864A1", "about": "“LNCRNA TRANSCRIPTS IN MELANOMAGENESIS” (The Regents of the University of California, priority 2021, published 2025)", "test_system": "gene expression in D04 melanoma cells", "experiment": "RNA-Seq differential expression analysis (DESeq2)", "type": "cell-based, human", "experimental": "Total RNA was isolated using the RNeasy mini Kit (QIAGEN) following the manufacturer's protocol. Quality check for extracted RNA was done using 2100 Bioanalyzer (Agilent Technologies, USA) or Tapestation System (Agilent Technologies, USA). […] For samples used for identification of MAPK-responsive lncRNAs, paired-end, 101-bp sequencing was performed by Centrillion Genomic Services (Centrillion Biosciences, USA) on an Illumina HiSeq 2000. For DE gene analysis of ASO-transfected D04 samples, paired-end, 2×150-bp sequencing was performed by Genewiz (USA) on a Illumina HiSeq.\nSequence reads were aligned to the human genome (hg19) using TopHat (Version 2.0.11).\nDifferential expression (DE) analysis was done using DESeq2. Differentially expressed genes were defined by more than 1.5-fold changes (log 2 >0.58 or <−0.58) in expression with FDR<0.05. GO term analysis was done using DAVID Functional Annotation Clustering analysis.\nTo examine the biomolecular changes upon TRASH-inhibition in melanoma, D04 cells were treated with TRASH-ASOs (SEQ ID NO:15) and Control-ASOs and RNA was extracted and used for RNA-Seq. […] These GO terms consisted of genes encoding growth factors, tyrosine kinases, G protein coupled receptor subunits, and collagen subunits. Scatter plot diagram showing differential gene expression after TRASH-ASO treatment compared to Control-ASO treatment. (cut-off for significance was adjusted p-value <0.05). Data was obtained from RNA-Seq of D04 melanoma cells, treatment period was three days. (FIG. 5c)"}
{"sequence": "GACTGGAGATAATTAA (gapmer, pattern not given here) [SEQ ID NO: 15, GapmeR ASO targeting AC004540.4 (TRASH), exon region of both isoforms; used for in vitro experiments]", "values": [{"measurement": "log2FoldChange AC010327.3", "setting": "ENSG00000267577, up-regulated list", "result": 1.04}, {"measurement": "log2FoldChange CARD8-AS1", "setting": "ENSG00000268001, up-regulated list", "result": 0.7573}, {"measurement": "log2FoldChange AC005261.3", "setting": "ENSG00000268713, up-regulated list", "result": 0.7391}, {"measurement": "log2FoldChange AL513477.1", "setting": "ENSG00000269896, up-regulated list", "result": 1.066}, {"measurement": "log2FoldChange AL606834.1", "setting": "ENSG00000269906, up-regulated list", "result": 0.6043}, {"measurement": "log2FoldChange ZNF559-ZNF177", "setting": "ENSG00000270011, up-regulated list", "result": 0.8965}, {"measurement": "log2FoldChange AC112220.2", "setting": "ENSG00000271020, up-regulated list", "result": 0.8814}, {"measurement": "log2FoldChange AC112220.4", "setting": "ENSG00000271643, up-regulated list", "result": 0.8013}, {"measurement": "log2FoldChange AC004890.3", "setting": "ENSG00000271664, up-regulated list", "result": 0.9879}, {"measurement": "log2FoldChange AL365181.3", "setting": "ENSG00000272405, up-regulated list", "result": 1.112}, {"measurement": "log2FoldChange AL365203.2", "setting": "ENSG00000273038, up-regulated list", "result": 0.6423}, {"measurement": "log2FoldChange AC037198.1", "setting": "ENSG00000276107, up-regulated list", "result": 0.6896}, {"measurement": "log2FoldChange AC245041.2", "setting": "ENSG00000276850, up-regulated list", "result": 1.06}, {"measurement": "log2FoldChange ENSG00000279184 (Gene.name NA)", "setting": "ENSG00000279184, up-regulated list", "result": 0.592}, {"measurement": "log2FoldChange AC005261.5", "setting": "ENSG00000279541, up-regulated list", "result": 0.6302}, {"measurement": "log2FoldChange AC104581.4", "setting": "ENSG00000280046, up-regulated list", "result": 0.8564}, {"measurement": "log2FoldChange UCKL1-AS1", "setting": "ENSG00000280213, up-regulated list", "result": 0.6201}, {"measurement": "log2FoldChange LINC01173", "setting": "ENSG00000280744, up-regulated list", "result": 0.9254}, {"measurement": "log2FoldChange AC139493.2", "setting": "ENSG00000283235, up-regulated list", "result": 0.8882}, {"measurement": "log2FoldChange", "setting": "EPHA3 (ENSG00000044524)", "result": "−0.647"}, {"measurement": "log2FoldChange", "setting": "ETS2 (ENSG00000157557)", "result": 1.279}, {"measurement": "log2FoldChange", "setting": "EVI2A (ENSG00000126860)", "result": 1.514}, {"measurement": "log2FoldChange", "setting": "EXOC3L2 (ENSG00000283632)", "result": "−0.6947"}, {"measurement": "log2FoldChange", "setting": "FAM129A (ENSG00000135842)", "result": "−0.6591"}, {"measurement": "log2FoldChange", "setting": "FAM172BP (ENSG00000175841)", "result": 2.273}, {"measurement": "log2FoldChange", "setting": "FAM180A (ENSG00000189320)", "result": 2.047}, {"measurement": "log2FoldChange", "setting": "FAM198B-AS1 (ENSG00000248429)", "result": "−0.6307"}, {"measurement": "log2FoldChange", "setting": "FBXO2 (ENSG00000116661)", "result": "−0.638"}, {"measurement": "log2FoldChange", "setting": "FBXO9 (ENSG00000112146)", "result": "−0.5825"}, {"measurement": "log2FoldChange", "setting": "FBXO40 (ENSG00000163833)", "result": 1.589}, {"measurement": "log2FoldChange", "setting": "FGF1 (ENSG00000113578)", "result": "−0.5817"}, {"measurement": "log2FoldChange", "setting": "FHDC1 (ENSG00000137460)", "result": "−0.7072"}, {"measurement": "log2FoldChange", "setting": "FOSB (ENSG00000125740)", "result": 2.191}, {"measurement": "log2FoldChange", "setting": "FRK (ENSG00000111816)", "result": "−0.6911"}, {"measurement": "log2FoldChange", "setting": "FRRS1 (ENSG00000156869)", "result": "−0.5906"}, {"measurement": "log2FoldChange", "setting": "FYN (ENSG00000010810)", "result": "−0.6273"}, {"measurement": "log2FoldChange", "setting": "GABRA3 (ENSG00000011677)", "result": "−0.5841"}, {"measurement": "log2FoldChange", "setting": "GAPDHP33 (ENSG00000240244)", "result": 1.514}, {"measurement": "log2FoldChange", "setting": "GAREM1 (ENSG00000141441)", "result": "−0.6261"}, {"measurement": "log2FoldChange", "setting": "GAS1 (ENSG00000180447)", "result": "−0.6542"}, {"measurement": "log2FoldChange", "setting": "GAS7 (ENSG00000007237)", "result": "−0.5864"}, {"measurement": "log2FoldChange", "setting": "GGT5 (ENSG00000099998)", "result": "−0.6741"}, {"measurement": "log2FoldChange", "setting": "GNG2 (ENSG00000186469)", "result": "−0.6003"}, {"measurement": "log2FoldChange", "setting": "GNGT2 (ENSG00000167083)", "result": 1.241}, {"measurement": "log2FoldChange", "setting": "GPR162 (ENSG00000250510)", "result": "−0.5935"}, {"measurement": "log2FoldChange", "setting": "GPRIN3 (ENSG00000185477)", "result": "−0.66"}, {"measurement": "log2FoldChange", "setting": "GSG1 (ENSG00000111305)", "result": 2.332}, {"measurement": "log2FoldChange", "setting": "H2BFWT (ENSG00000123569)", "result": 2.336}, {"measurement": "log2FoldChange", "setting": "HDAC2-AS2 (ENSG00000228624)", "result": 1.256}, {"measurement": "log2FoldChange", "setting": "HDAC4 (ENSG00000068024)", "result": "−0.5923"}, {"measurement": "log2FoldChange", "setting": "HEY1 (ENSG00000164683)", "result": "−0.6645"}, {"measurement": "log2FoldChange", "setting": "HHIPL2 (ENSG00000143512)", "result": "−0.6841"}, {"measurement": "log2FoldChange", "setting": "HID1 (ENSG00000167861)", "result": 1.325}, {"measurement": "log2FoldChange", "setting": "HLA-DMA (ENSG00000204257)", "result": "−0.582"}, {"measurement": "log2FoldChange", "setting": "HLA-DMB (ENSG00000242574)", "result": "−0.6646"}, {"measurement": "log2FoldChange", "setting": "HLA-DPB1 (ENSG00000223865)", "result": "−0.696"}, {"measurement": "log2FoldChange", "setting": "HLA-DRA (ENSG00000204287)", "result": "−0.641"}, {"measurement": "log2FoldChange", "setting": "HLA-V (ENSG00000181126)", "result": 1.398}, {"measurement": "log2FoldChange", "setting": "HS6ST2 (ENSG00000171004)", "result": "−0.588"}, {"measurement": "log2FoldChange", "setting": "HSD3B1 (ENSG00000203857)", "result": "−0.6356"}, {"measurement": "log2FoldChange", "setting": "HSPA2 (ENSG00000126803)", "result": "−0.6741"}, {"measurement": "log2FoldChange", "setting": "IFI27 (ENSG00000165949)", "result": "−0.6194"}, {"measurement": "log2FoldChange", "setting": "IFI27L1 (ENSG00000165948)", "result": "−0.5945"}, {"measurement": "log2FoldChange", "setting": "IGFBP5 (ENSG00000115461)", "result": "−0.631"}, {"measurement": "log2FoldChange", "setting": "IGSF11 (ENSG00000144847)", "result": "−0.5994"}, {"measurement": "log2FoldChange", "setting": "IL24 (ENSG00000162892)", "result": 2.412}, {"measurement": "log2FoldChange", "setting": "IMMP2L (ENSG00000184903)", "result": "−0.6662"}, {"measurement": "log2FoldChange", "setting": "ITGB2 (ENSG00000160255)", "result": 1.646}, {"measurement": "log2FoldChange", "setting": "KCNK1 (ENSG00000135750)", "result": 4.668}, {"measurement": "log2FoldChange", "setting": "KCNQ5 (ENSG00000185760)", "result": "−0.6919"}, {"measurement": "log2FoldChange", "setting": "KIAA0319L (ENSG00000142687)", "result": "−0.5992"}, {"measurement": "log2FoldChange", "setting": "KIF1A (ENSG00000130294)", "result": 6.604}, {"measurement": "log2FoldChange", "setting": "KIRREL1 (ENSG00000183853)", "result": "−0.6846"}, {"measurement": "log2FoldChange", "setting": "KISS1 (ENSG00000170498)", "result": 1.679}, {"measurement": "log2FoldChange", "setting": "KITLG (ENSG00000049130)", "result": "−0.5925"}, {"measurement": "log2FoldChange", "setting": "KLK2 (ENSG00000167751)", "result": 2.321}, {"measurement": "log2FoldChange", "setting": "KRT15 (ENSG00000171346)", "result": 1.605}, {"measurement": "log2FoldChange", "setting": "KRT34 (ENSG00000131737)", "result": 3.32}, {"measurement": "log2FoldChange", "setting": "KRT73-AS1 (ENSG00000257495)", "result": 2.888}, {"measurement": "log2FoldChange", "setting": "KRT75 (ENSG00000170454)", "result": 1.915}, {"measurement": "log2FoldChange", "setting": "LBH (ENSG00000213626)", "result": "−0.6972"}, {"measurement": "log2FoldChange", "setting": "LCK (ENSG00000182866)", "result": 1.307}, {"measurement": "log2FoldChange", "setting": "LCN2 (ENSG00000148346)", "result": 1.647}, {"measurement": "log2FoldChange", "setting": "LDHD (ENSG00000166816)", "result": 1.623}, {"measurement": "log2FoldChange", "setting": "LDLR (ENSG00000130164)", "result": "−0.588"}, {"measurement": "log2FoldChange", "setting": "LIFR (ENSG00000113594)", "result": "−0.5862"}, {"measurement": "log2FoldChange", "setting": "LINC00520 (ENSG00000258791)", "result": 2.38}]}
